Data taken from the supplement of paper PMC10307832.

Experiments:
Test in all cases: relative viability (nuclei count vs DMSO), 5 days (fraction); higher = more cells survive
[1] = compound: C/C(=N\NC(=S)N1CCC1)/C2=CC=CC=N2 + CC1(C)CCC(c2ccc(Cl)cc2)=C(CN2CCN(c3ccc(C(=O)NS(=O)(=O)c4ccc(N[C@H](CCN5CCOCC5)CSc5ccccc5)c(S(=O)(=O)C(F)(F)F)c4)cc3)CC2)C1 [Navitoclax] (partner 0.5 µM)
Method in brief: (§1)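 Nuclei were stained with Hoechst during a one-step fixation (final 0.05% Triton X-100, 1% formaldehyde, 1 ug/ml Hoechst) carried out 5 days after dosing, then counted on 4× images. The cells, lung cancer lines in 1536-well plates, had been dosed by pin tool the day after seeding with one drug alone or a fixed anchor-drug dose plus five library-drug doses (not always all listed) in √10 steps. Relative viability is the nuclei count in treated wells divided by that in vehicle wells, and each value is the median of duplicate plates.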

[2] = compound: C/C(=N\NC(=S)N1CCC1)/C2=CC=CC=N2 + O=C(CCCCCCC(=O)Nc1ccccc1)NO [Vorinostat] (partner 1 µM)
Method in brief: as §1

[3] = compound: C/C(=N\NC(=S)N1CCC1)/C2=CC=CC=N2 + Nc1nc2[nH]cc(CCc3ccc(C(=O)N[C@@H](CCC(=O)O)C(=O)O)cc3)c2c(=O)[nH]1 [Pemetrexed] (partner 0.2 µM)
Method in brief: as §1

[4] = compound: C/C(=N\NC(=S)N1CCC1)/C2=CC=CC=N2 + C[C@]1(O)C[C@@H](c2nc(-c3ccc4ccc(-c5ccccc5)nc4c3)c3c(N)nccn32)C1 [Linsitinib] (partner 1 µM)
Method in brief: as §1

Cell Line | relative viability ([1]; first compound 0.05 µM) | relative viability ([1]; first compound 0.1581 µM) | relative viability ([1]; first compound 0.5 µM) | relative viability ([1]; first compound 1.581 µM) | relative viability ([1]; first compound 5 µM) | relative viability ([2]; first compound 0.05 µM) | relative viability ([2]; first compound 0.1581 µM) | relative viability ([2]; first compound 0.5 µM) | relative viability ([2]; first compound 1.581 µM) | relative viability ([2]; first compound 5 µM) | relative viability ([3]; first compound 0.05 µM) | relative viability ([3]; first compound 0.1581 µM) | relative viability ([3]; first compound 0.5 µM) | relative viability ([3]; first compound 1.581 µM) | relative viability ([3]; first compound 5 µM) | relative viability ([4]; first compound 0.05 µM) | relative viability ([4]; first compound 0.1581 µM) | relative viability ([4]; first compound 0.5 µM) | relative viability ([4]; first compound 1.581 µM) | relative viability ([4]; first compound 5 µM)
LU99A | 0.196 | 0.181 | 0.139 | 0.154 | 0.187 | 0.147 | 0.152 | 0.137 | 0.131 | 0.161 | 0.192 | 0.158 | 0.164 | 0.146 | 0.162 | 0.189 | 0.132 | 0.117 | 0.155 | 0.172
LXF-289 | 0.431 | 0.361 | 0.248 | 0.193 | 0.108 | 0.22 | 0.185 | 0.188 | 0.151 | 0.104 | 0.254 | 0.203 | 0.199 | 0.17 | 0.104 | 0.508 | 0.325 | 0.248 | 0.226 | 0.131
NCI-H23 | 0.139 | 0.186 | 0.117 | 0.135 | 0.171 | 0.15 | 0.11 | 0.124 | 0.0929 | 0.102 | 0.16 | 0.175 | 0.203 | 0.137 | 0.19 | 0.134 | 0.196 | 0.13 | 0.124 | 0.151
NCI-H322M | 0.268 | 1.21 | 0.208 | 0.281 | 0.277 | 0.337 | 0.345 | 0.358 | 0.465 | 0.438 | 0.327 | 0.391 | 0.556 | 0.327 | 0.404 | 0.291 | 0.876 | 0.197 | 0.245 | 0.319
NCI-H441 | 0.374 | 0.188 | 0.205 | 0.174 | 0.15 | 0.16 | 0.19 | 0.153 | 0.111 | 0.127 | 0.16 | 0.162 | 0.129 | 0.154 | 0.118 | 0.145 | 0.15 | 0.117 | 0.0833 | 0.108
NCI-H460 | 0.0277 | 0.0183 | 0.0198 | 0.0147 | 0.0062 | 0.0355 | 0.029 | 0.0302 | 0.03 | 0.0178 | 0.0583 | 0.0469 | 0.0644 | 0.0399 | 0.014 | 0.0136 | 0.0148 | 0.0172 | 0.0108 | 0.005
NCI-H520 | 0.19 | 0.212 | 0.301 | 0.151 | 0.166 | 0.177 | 0.156 | 0.163 | 0.182 | 0.159 | 0.128 | 0.16 | 0.145 | 0.122 | 0.146 | 0.164 | 0.145 | 0.123 | 0.116 | 0.169
NCI-H596 | 0.66 | 0.38 | 0.226 | 0.274 | 0.161 | 0.27 | 0.255 | 0.253 | 0.241 | 0.23 | 0.373 | 0.302 | 0.339 | 0.243 | 0.292 | 0.912 | 0.344 | 0.251 | 0.208 | 0.257
